PubChem BioAssay (NCI)
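How tested: cells in 96-well plates exposed to compound for 48 hours at five concentrations. Definition used: TGI = concentration required for complete inhibition of growth.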

Experiments:
Test in all cases: NCI tumour cell line growth inhibition, 48 h
[1] = system: DMS 273 small cell lung
[2] = system: K-562 leukemia
[3] = system: SNB-75 CNS
[4] = system: 786-0 renal
[5] = system: CCRF-CEM leukemia
[6] = system: RPMI-8226 leukemia
[7] = system: MALME-3M melanoma
[8] = system: XF 498 CNS
[9] = system: HT29 colon
[10] = system: HOP-62 NSCLC
[11] = system: SK-OV-3 ovarian
[12] = system: TK-10 renal
[13] = system: U251 CNS
[14] = system: NCI-H522 lung
[15] = system: HOP-18 NSCLC
[16] = system: M19-MEL melanoma
[17] = system: HCT-15 colon
[18] = system: SW-620 colon
[19] = system: OVCAR-3 ovarian
[20] = system: KM12 colon
[21] = system: RXF-631 renal
[22] = system: LXFL 529 NSCLC
[23] = system: SNB-19 CNS
[24] = system: RXF 393 renal
[25] = system: OVCAR-5 ovarian
[26] = system: SK-MEL-28 melanoma
[27] = system: UO-31 renal
[28] = system: SNB-78 CNS
[29] = system: DLD-1 colon
[30] = system: ACHN renal
[31] = system: HCC-2998 colon
[32] = system: SF-295 CNS
[33] = system: HCT-116 colon
[34] = system: M14 melanoma
[35] = system: OVCAR-8 ovarian
[36] = system: CAKI-1 renal
[37] = system: NCI-H226 lung
[38] = system: DMS 114 small cell lung
[39] = system: SN12C renal
[40] = system: OVCAR-4 ovarian
[41] = system: NCI-H460 lung
[42] = system: A549 NSCLC
[43] = system: HOP-92 NSCLC
[44] = system: UACC-62 melanoma
[45] = system: LOX IMVI melanoma
[46] = system: MOLT-4 leukemia
[47] = system: SF-268 CNS
[48] = system: KM20L2 colon
[49] = system: COLO 205 colon
[50] = system: A498 renal
[51] = system: SF-539 CNS
[52] = system: IGROV1 ovarian
[53] = system: UACC-257 melanoma
[54] = system: HL-60(TB) leukemia
[55] = system: NCI-H23 lung
[56] = system: SR leukemia
[57] = system: SK-MEL-5 melanoma
[58] = system: EKVX NSCLC
[59] = system: SK-MEL-2 melanoma

CCCCCCC[C@@H](O)CC(=O)NC(CC(C)C)C(=O)NC(CCC(=O)O)C(=O)NC1C(=O)NC(C(C)C)C(=O)NC(CC(C)C)C(=O)NC(CO)C(=O)NC(CC(C)C)C(=O)NC(CO)C(=O)NC(C(C)CC)C(=O)OC1C (stereo not given in full)
TGI [1]: 28.1 µM | TGI [2]: 30.9 µM | TGI [3]: 18 µM | TGI [4]: 27.9 µM | TGI [5]: 25.8 µM | TGI [6]: 33.5 µM | TGI [7]: 17.6 µM | TGI [8]: 15.2 µM | TGI [9]: 31 µM | TGI [10]: 24.4 µM | TGI [11]: 34.4 µM | TGI [12]: 28.9 µM | TGI [13]: 20.9 µM | TGI [14]: 26.6 µM | TGI [15]: 24.9 µM | TGI [16]: 22.6 µM | TGI [17]: 4.42 µM | TGI [18]: 28.8 µM | TGI [19]: 31.1 µM | TGI [20]: 26.6 µM | TGI [21]: 28.8 µM | TGI [22]: 25.8 µM | TGI [23]: 16.6 µM | TGI [24]: 26 µM | TGI [25]: 31.8 µM | TGI [26]: 30.6 µM | TGI [27]: 33.6 µM | TGI [28]: 34.3 µM | TGI [29]: 3.04 µM | TGI [30]: 25.7 µM | TGI [31]: 28.6 µM | TGI [32]: 22.2 µM | TGI [33]: 25.7 µM | TGI [34]: 20.9 µM | TGI [35]: 29.8 µM | TGI [36]: 37.6 µM | TGI [37]: 34.2 µM | TGI [38]: 33.1 µM | TGI [39]: 29.5 µM | TGI [40]: 34.4 µM | TGI [41]: 11.3 µM | TGI [42]: 36.1 µM | TGI [43]: 18.7 µM | TGI [44]: 29.1 µM | TGI [45]: 31.2 µM | TGI [46]: 39.9 µM | TGI [47]: 30.5 µM | TGI [48]: 30.5 µM | TGI [49]: 2.93 µM | TGI [50]: 31.6 µM | TGI [51]: 4.77 µM | TGI [52]: 31.6 µM | TGI [53]: 29 µM | TGI [54]: 37.2 µM | TGI [55]: 29.9 µM | TGI [56]: 35.3 µM | TGI [57]: 29.9 µM

CC(=O)Oc1ccc(O)c2c1CCCC2
TGI [1]: > 64.1 µM | TGI [2]: 54.6 µM | TGI [3]: > 100 µM | TGI [4]: > 100 µM | TGI [5]: 47.6 µM | TGI [6]: 66.4 µM | TGI [7]: > 61.2 µM | TGI [8]: 30 µM | TGI [9]: > 100 µM | TGI [10]: > 100 µM | TGI [11]: > 100 µM | TGI [12]: 49.6 µM | TGI [13]: > 100 µM | TGI [14]: 18.1 µM | TGI [15]: > 100 µM | TGI [16]: 18.4 µM | TGI [17]: 18.4 µM | TGI [18]: 39.6 µM | TGI [58]: > 100 µM | TGI [19]: 25.9 µM | TGI [20]: > 100 µM | TGI [21]: > 100 µM | TGI [22]: 31.2 µM | TGI [23]: > 100 µM | TGI [24]: > 57.5 µM | TGI [25]: > 100 µM | TGI [26]: > 100 µM | TGI [27]: > 64.5 µM | TGI [28]: 40.2 µM | TGI [29]: 48.5 µM | TGI [30]: 29.2 µM | TGI [31]: > 100 µM | TGI [32]: > 100 µM | TGI [33]: 32.9 µM | TGI [34]: > 68.2 µM | TGI [35]: 32.9 µM | TGI [36]: > 73.4 µM | TGI [37]: > 100 µM | TGI [38]: > 54 µM | TGI [39]: > 65.9 µM | TGI [40]: 33.2 µM | TGI [41]: > 31.6 µM | TGI [42]: > 100 µM | TGI [44]: > 100 µM | TGI [45]: 36.3 µM | TGI [46]: 43.5 µM | TGI [47]: > 100 µM | TGI [48]: > 100 µM | TGI [49]: 55.6 µM | TGI [50]: > 31.6 µM | TGI [51]: > 100 µM | TGI [52]: > 100 µM | TGI [53]: > 91.1 µM | TGI [54]: 14.1 µM | TGI [55]: > 91.1 µM | TGI [56]: 16.3 µM | TGI [59]: > 100 µM | TGI [57]: > 63.3 µM
